Measurements as given in patent US20060035291A1, “Method of detecting cellular immunity and application thereof to drugs” (priority 2001, published 2006).
Where no end group is shown, it is not given here.

What was measured:
[1] = system: cancer patients; experiment: Skin test for immediate and delayed type hypersensitivity in cancer patients; settings: for type I allergy in skin tests during the course of vaccination: skin tests before the 9th and 17th dose (ART413, SART3315), 3rd pre-vaccination skin test (CypB91); for immediate hypersensitivity reaction in skin test: human, in vivo
Protocol: For the skin test, 10 μg of 5 kinds of peptides was subcutaneously administered to each patient. Saline was used as the negative control. 20 minutes and 24 hours after injection, immediate and delayed type hypersensitivity (DHT) reactions were looked for. The skin test reaction was determined as positive if erythema and sclerosis were more than 10 mm in diameter. If the immediate hypersensitivity reaction was negative, a peptide was administered. Each peptide solution (3 mg/ml) was mixed with the same amount of IFA (Montanide ISA-51) and emulsified in a 5-mI plastic syringe, and 3 ml of the emulsion was subcutaneously administered to the lateral femoral region every two weeks. Serum PSA level was measured 4 weeks after vaccination. The time passed was defined as the time from the registration day to the date when the progress of the target disease was recorded. For patients who chose to discontinue the study without any progress of the target disease (e.g., increase in PSA) it was determined that the disease had progressed at the time the study was stopped.
When an immediate hypersensitivity reaction positive in the skin test of one of these peptides, that peptide was vaccinated if the fifth peptide of criteria A, B, or Z was negative in the skin test. […] In Table 14, o signifies vaccine peptides given to each patient.
Vaccine was administered to HLA-A24 positive patients with progressive cancer as following. CypB91 was given to lung cancer patients, ART475 to ovarian cancer patients, and SART3109 to colorectal cancer patients. None of the patients received any steroids or other immunosuppressants from 4 weeks before the beginning of this study to the end of the study. When the skin test was negative, 1 ml of peptide solution (1 mg/ml) was emulsified with the same amount of Freund's incomplete adjuvant (Montanide ISA-51) and injected subcutaneously. In this embodiment, all patients were vaccinated at least three times every two weeks, and up to seventeen times, depending on the patient's wishes.

[2] = system: healthy donors; settings: in vivo
[3] = system: CD8 positive and HLA-A24/peptide tetramer positive T cells; settings: PBMCs of healthy donors sensitized in vitro with EBV peptide, protocol C
Protocol: Recombinant HLA-A2402 a chains containing a biotinated portion and recombinant β2-microglobline were synthesized and used for refolding of soluble HLA molecules in the presence of HLA-A2402 binding peptides. […] Monomer HLA-peptide complex was biotinated with BirA in the a chain, which was isolated form free biotin by gel filtration. The biotinated HLA was tetramerized with 4:1 molar ratio of Strept-avidin-PE. PBMCs sensitized in vitro were re-suspended at the ratio of 5×10^5 cells per 25 μl of phosphate buffer saline (PBS) containing 20% of human AB serum. […] After that, the cells were washed with PBS and analyzed using FACScan. Twenty thousand events were obtained.
More specifically, PBMCs stimulated according to protocol C determined in Example 3 were analyzed by the tetramer assay as described above.

[4] = system: cancer patients; settings: cancer patients (Miyagi et al., Clin. Cancer Res. 7:3950, 2001); cited from earlier work
[5] = system: HLA-A24 restricted antigen peptide-specific T cells (CTL precursors) in PBMCs; format: cell-based, human

Sequence: KFHRVIKDF [CypB84]
- patients with immediate hypersensitivity reaction in pre-vaccination skin test ([1]; vaccinated patients with lung cancer, Phase I clinical trial): 8 of 10
- rate of skin reaction occurrence [2]: 95%
- rate of skin reaction occurrence (donors) [2]: 39/41

Sequence: RYLRQQLLGI [HIV peptide]
- ratio of the CD8 positive and HLA-A24/peptide tetramer positive subsets [3]: 0.03%

Sequence: AYIDFEMKI [SART3315]
- type I allergy in skin tests during the course of vaccination [1]: did not induce type I allergy
- rate of skin reaction occurrence [2]: 45%
- rate of skin reaction occurrence (donors) [2]: 18/40
- allergic skin reaction in pre-vaccination study [4]: induced allergic skin reaction

Sequence: TYGPVFMCL [EBV, reference compound]
- detection of peptide-specific T cells [5]: detected in all 10 donors
- difference in IFN-γ production between target cells sensitized with EB virus peptide and HIV peptide [5]: 2775 pg/mL
- difference in production level of IFN-γ between target cells sensitized with EB virus peptide and HIV peptide [5]: more than 300 pg/ml
- ratio of the CD8 positive and HLA-A24/peptide tetramer positive subsets [3]: 1.15%

Sequence: DFMIQGGDF [CypB91]
- immediate hypersensitivity reaction in skin test [1]: positive in all patients
- type I allergy in skin tests during the course of vaccination [1]: induced type I allergy
- rate of skin reaction occurrence (donors) [2]: no such response

Sequence: AFLRHAAL [ART413, AFLRHAAL]
- immediate hypersensitivity reaction in skin test [1]: positive in all patients
- type I allergy in skin tests during the course of vaccination [1]: did not induce type I allergy
- rate of skin reaction occurrence [2]: 95%
- rate of skin reaction occurrence (donors) [2]: 38/40
- allergic skin reaction in pre-vaccination study [4]: induced allergic skin reaction

Sequence: SYTRLFLIL [SART2899]
- immediate hypersensitivity reaction in skin test [1]: positive in all patients
- rate of skin reaction occurrence [2]: 25%
- rate of skin reaction occurrence (donors) [2]: 10/40
- allergic skin reaction in pre-vaccination study [4]: induced allergic skin reaction
